Target: T1, human Nav1.6 (hNav1.6) (Homo sapiens, UniProt Q9UQD0)
T1 construct: expressed in transfected cells; host or cells: HEK-293 (G418 selection)
Assay: Modulation of late sodium current (INaL), PatchXpress electrophysiology
Assay type: cell-based
Conditions: HEK293; 1 μM compound; HEK-293 cells expressing recombinant human Nav channel; late current evoked by 300 nM ATX-II; steady-state inhibition; read-out: INaL v1.6 (1 μM, % Inhibition)
Procedure: Functional characterization of exemplary compounds to modulate INaL expressed by the Nav1.6 voltage-gated sodium channel was accomplished using the PatchXpress™ high throughput electrophysiology platform (Molecular Devices, Sunnyvale, Calif.). HEK-293 cells expressing recombinant, human Nav1.6 (hNav1.6) were grown in DMEM/high-glucose Dulbecco's modified, 10% FBS, 2 mM sodium pyruvate, 10 mM HEPES and 400 μg/mL G418. Cells were grown to 50%-80% confluency prior to harvesting. Trypsinized cells were washed, allowed to recover for 1 hour and then resuspended in extracellular recording solution at a concentration of 1×10^6 cells/ml. The onboard liquid handling facility of the PatchXpress was used for dispensing cells and applying test compounds. Nav late currents were evoked by the application of 300 nM ATX-II. INaL was evoked by depolarizing pulses to 0 mV for 200 ms from a non-inactivating holding potential (e.g., −120 mV) at a frequency of 0.1 Hz. INaL amplitude and stability were determined by analyzing the mean current amplitude over the final 20 ms of the test pulse. […] Percent steady-state inhibition of INaL was calculated as: [(INaL_compound)/(INaL_control)]*100, where INaL_compound and INaL_control represent INaL recorded in the presence or absence of compound, respectively.

T1 sequence (Q9UQD0 whole entry): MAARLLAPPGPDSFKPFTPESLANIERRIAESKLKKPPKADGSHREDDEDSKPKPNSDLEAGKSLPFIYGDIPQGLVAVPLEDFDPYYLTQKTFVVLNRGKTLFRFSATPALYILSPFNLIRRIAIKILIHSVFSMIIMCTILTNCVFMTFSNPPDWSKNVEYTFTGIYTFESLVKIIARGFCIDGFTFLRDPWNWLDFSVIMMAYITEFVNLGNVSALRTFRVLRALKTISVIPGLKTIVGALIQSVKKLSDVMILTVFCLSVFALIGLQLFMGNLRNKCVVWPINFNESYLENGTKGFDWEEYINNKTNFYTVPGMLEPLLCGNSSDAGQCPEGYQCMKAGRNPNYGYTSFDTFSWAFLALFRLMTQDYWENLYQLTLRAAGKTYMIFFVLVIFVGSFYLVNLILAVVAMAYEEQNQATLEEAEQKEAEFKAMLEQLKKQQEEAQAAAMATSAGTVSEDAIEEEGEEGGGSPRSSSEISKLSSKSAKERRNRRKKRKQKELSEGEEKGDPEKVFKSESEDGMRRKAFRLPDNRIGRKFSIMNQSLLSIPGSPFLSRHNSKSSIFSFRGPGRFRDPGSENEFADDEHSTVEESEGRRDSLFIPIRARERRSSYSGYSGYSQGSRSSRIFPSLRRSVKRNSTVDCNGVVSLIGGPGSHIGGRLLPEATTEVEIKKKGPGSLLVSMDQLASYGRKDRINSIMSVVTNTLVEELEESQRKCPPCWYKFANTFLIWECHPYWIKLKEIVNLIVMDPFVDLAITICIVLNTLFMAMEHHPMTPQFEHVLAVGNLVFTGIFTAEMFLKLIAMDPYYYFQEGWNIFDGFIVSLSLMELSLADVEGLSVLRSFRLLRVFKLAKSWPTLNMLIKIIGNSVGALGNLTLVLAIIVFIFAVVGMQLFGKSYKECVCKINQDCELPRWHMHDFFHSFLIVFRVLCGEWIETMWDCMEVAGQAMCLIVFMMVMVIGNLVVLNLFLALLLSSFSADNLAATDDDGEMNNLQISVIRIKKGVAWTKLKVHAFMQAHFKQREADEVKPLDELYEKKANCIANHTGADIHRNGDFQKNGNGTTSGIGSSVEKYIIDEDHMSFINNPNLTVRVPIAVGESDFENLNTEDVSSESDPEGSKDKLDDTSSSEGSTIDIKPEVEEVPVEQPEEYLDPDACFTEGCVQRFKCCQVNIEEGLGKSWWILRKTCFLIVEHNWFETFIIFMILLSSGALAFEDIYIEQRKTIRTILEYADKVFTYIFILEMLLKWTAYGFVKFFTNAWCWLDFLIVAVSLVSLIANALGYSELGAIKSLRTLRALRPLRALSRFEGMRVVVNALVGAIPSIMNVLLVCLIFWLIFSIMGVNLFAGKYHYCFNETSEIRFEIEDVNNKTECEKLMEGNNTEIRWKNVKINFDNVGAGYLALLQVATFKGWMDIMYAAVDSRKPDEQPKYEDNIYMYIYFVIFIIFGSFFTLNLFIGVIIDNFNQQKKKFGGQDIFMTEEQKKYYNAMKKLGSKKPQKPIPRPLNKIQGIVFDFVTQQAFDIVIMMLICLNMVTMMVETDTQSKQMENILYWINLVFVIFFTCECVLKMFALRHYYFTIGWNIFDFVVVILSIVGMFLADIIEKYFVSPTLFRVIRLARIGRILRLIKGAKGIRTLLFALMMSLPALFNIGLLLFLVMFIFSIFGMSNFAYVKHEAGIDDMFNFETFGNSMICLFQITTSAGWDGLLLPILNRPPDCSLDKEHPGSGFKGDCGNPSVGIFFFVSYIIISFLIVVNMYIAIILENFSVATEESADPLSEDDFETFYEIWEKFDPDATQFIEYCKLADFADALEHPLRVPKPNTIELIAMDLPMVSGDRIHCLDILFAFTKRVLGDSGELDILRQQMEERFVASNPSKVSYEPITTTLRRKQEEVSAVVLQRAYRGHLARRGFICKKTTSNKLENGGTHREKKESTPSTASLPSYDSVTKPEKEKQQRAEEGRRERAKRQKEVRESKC

Compound	inhibition at 1 µM [%]
CNC(=O)Cn1c(=O)oc2ccc(-c3ccc(OC(F)(F)F)cc3)cc21 [Compound 41]	< 30
NC(=O)Cn1c(=O)oc2ccc(-c3ccc(OC(F)(F)F)cc3)cc21 [Compound 42]	< 30
Cn1c(=O)oc2ncc(-c3ccc(OC(F)(F)F)cc3)cc21 [Compound 43]	< 30
CC(C(=O)N1CCCC1)n1c(=O)oc2ccc(-c3ccc(OC(F)(F)F)cc3)cc21 (stereo not drawn) [Compound 45]	< 30
Cc1nnc(Cn2c(=O)oc3ccc(-c4ccc(OC(F)(F)F)cc4)cc32)o1 [Compound 51]	30 to 70
O=c1oc2ccc(-c3ccc(OC(F)(F)F)cc3)cc2n1CC1CCOCC1 [Compound 56]	> 70
O=c1oc2ccc(-c3ccc(OC(F)(F)F)cc3)cc2n1CC1CCCCO1 (stereo not drawn) [Compound 57]	> 70
O=c1oc2ccc(-c3ccc(OC(F)(F)F)cc3)cc2n1CC1CCOC1 (stereo not drawn) [Compound 68]	> 70
CCn1c(=O)oc2ccc(-c3cnc(OCC(F)(F)F)c(F)c3)nc21 [Compound 71]	< 30
O=c1oc2ccc(-c3ccc(OC(F)(F)F)cc3)cc2n1CC1CCCOC1 (stereo not drawn) [Compound 72]	> 70
O=C(Cn1c(=O)oc2ccc(-c3ccc(OC(F)(F)F)cc3)nc21)N1CCCC1 [Compound 79]	30 to 70
CN(CC(F)(F)F)C(=O)Cn1c(=O)oc2ccc(-c3ccc(OC(F)(F)F)cc3)cc21 [Compound 80]	30 to 70
O=c1oc2ccc(-c3ccc(OC(F)(F)F)cc3)cc2n1Cc1cncnc1 [Compound 84]	> 70
CCN(C)C(=O)Cn1c(=O)oc2ccc(-c3ccc(OC(F)(F)F)cc3)cc21 [Compound 85]	30 to 70
CCn1c(=O)oc2ccc(-c3cnc(OCC(F)(F)F)c(F)c3)cc21 [Compound 96]	30 to 70
C[C@@H](O)CCn1c(=O)oc2ccc(-c3ccc(OC(F)(F)F)cc3)cc21 [Compound 97]	> 70
C[C@H](O)CCn1c(=O)oc2ccc(-c3ccc(OC(F)(F)F)cc3)cc21 [Compound 98]	30 to 70
O=c1oc2ccc(-c3ccc(OC(F)(F)F)cc3)cc2n1C[C@@H]1CCCO1 [Compound 104]	> 70

Second part, the molecule after the results:

inhibition at 1 µM [%]	Compound
< 30	O=c1oc2ncc(-c3ccc(OC(F)(F)F)cc3)cc2n1Cc1ncccn1 [Compound 49]
30 to 70	O=c1oc2ccc(-c3ccc(OC(F)(F)F)cc3)cc2n1Cc1ncccn1 [Compound 50]
> 70	Cn1c(=O)oc2ccc(-c3ccc(OC(F)(F)F)cc3)nc21 [Compound 75]
> 70	CCn1c(=O)oc2ccc(-c3ccc(OC(F)(F)F)cc3)nc21 [Compound 76]
> 70	CC(C)n1c(=O)oc2ccc(-c3ccc(OC(F)(F)F)cc3)nc21 [Compound 78]
> 70	O=c1oc2ccc(-c3ccc(OC(F)(F)F)cc3)nc2n1CC(F)F [Compound 86]
30 to 70	O=c1oc2ccc(-c3ccc(OC(F)(F)F)cc3)nc2n1CCc1ncccn1 [Compound 87]
> 70	CC(O)CCn1c(=O)oc2ccc(-c3ccc(OC(F)(F)F)cc3)nc21 (stereo not drawn) [Compound 89]
30 to 70	O=c1oc2ccc(-c3ccc(OC(F)(F)F)cc3)nc2n1CCCO [Compound 90]
30 to 70	[2H]C([2H])([2H])C([2H])([2H])n1c(=O)oc2ccc(-c3ccc(OC(F)(F)F)cc3)nc21 [Compound 91]
< 30	O=c1oc2ncc(-c3ccc(OC(F)(F)F)cc3)cc2n1CCc1ncccn1 [Compound 92]
> 70	[2H]C([2H])([2H])n1c(=O)oc2ccc(-c3ccc(OC(F)(F)F)cc3)nc21 [Compound 93]
> 70	O=c1oc2ccc(-c3ccc(OC(F)(F)F)cc3)nc2n1CC1CCOCC1 [Compound 101]
> 70	O=c1oc2ccc(-c3ccc(OC(F)(F)F)cc3)nc2n1CC1COC1 [Compound 102]
> 70	O=c1oc2ccc(-c3ccc(OC(F)(F)F)cc3)nc2n1Cc1cncnc1 [Compound 103]
